Source: US8772290B2, “Alpha-arylmethoxyacrylate derivative, preparation method thereof, and pharmaceutical composition containing same” (Oscotech Inc., priority 2010, dated 2014)

What follows are compounds tested on HIF (assay: Assay for inhibitory activity against HIF activity (HIF1 luciferase reporter cell line)). Conditions: HEK293 HIF1 reporter cell line, 1% oxygen, 6 hours, luciferase activity 50% inhibited.
Format: cell-based, human
Description: In order to assay the compounds of the present invention for inhibitory activity against HIF activity, the HIF1 reporter plasmid (Panomics) that is designed to control the expression of luciferase by HIF was employed. The HIF1 reporter plasmid and the pTK-Hyg plasmid (Clontech), which carries a hygromycin resistant gene, were co-transfected into the HEK293 cell line (the Korean Cell Line Bank, KCLB No. 21573), derived from the human kidney, with the aid of Effectene transfection reagent (Qiagen). Then, the cells were cultured for 3 weeks on a medium containing 200 μg/mL hygromycin to select transformants resistant to hygromycin. The cell colonies derived from single cells were transferred to 24-well plates to secure a reporter cell line. The cells were seeded at a density of 4×10^4 cells/well into 96-well plates containing DMEM and incubated for 24 hours before treatment with the compounds of the present invention at a concentration of 25 μM, 5 μM, 1 μM, 200 nM, 40 nM, 8 nM, 1.6 nM, 320 pM, 64 pM, 12.8 pM, 2.56 pM, 512 fM, 102 fM, 20.4 fM, or an amount between any two concentrations above as shown in FIGS. 1A to 1C. Under 1% oxygen condition, the cells were incubated for 6 hours and then, the medium was removed. The cells were lyzed by incubation for 5 min with 100 μL of the mixture of Bright-Glo™ luciferase assay buffer and Bright-Glo™ luciferase assay substrate (Promega). The whole cell lysate was transferred to 96-well, white plates (PerkinElmer) and measured for luminescence using Victor™ 3 (PerkinElmer). From the luminescence measurements, IC50 (a concentration of the compound at which luciferase activity was 50% inhibited) was calculated using the GraphPad Prism™ 4 program. The results are summarized in Table 2 and illustrated in FIGS. 1A to 1C.

| IC50 | Compound |
| --- | --- |
| 6060 nM | (E)-methyl 2-(2-((3-hydroxy-5-(2-phenoxyethoxy)phenoxy)methyl)-phenyl)-3-methoxyacrylate [Compound 20] |

Same assay, conditions: Homo sapiens; HEK293 HIF1 reporter cell line, 1% oxygen, 6 hours, luciferase activity 50% inhibited

| Compound | IC50 |
| --- | --- |
| CCCO/N=C/c1cc(F)c(OCc2ccccc2/C(=C\OC)C(=O)OC)c(OC)c1 [Compound 64, (E)-methyl 2-(2-((2-fluoro-6-methoxy-4-((E)-(propoxyimino)methyl)-phenoxy)methyl)phenyl)-3-methoxyacrylate] | 2620 nM |
| CCCOc1c(F)ccc(OCc2ccccc2/C(=C\OC)C(=O)OC)c1F [Compound 65, (E)-methyl 2-(2-((2,4-difluoro-3-propoxyphenoxy)methyl)phenyl)-3-methoxyacrylate] | 1000 nM |
| CO/C=C(/C(=O)OC)c1ccccc1COc1c(F)cc(/C=N/OCCc2ccccc2)cc1OC [Compound 66, (E)-methyl 2-(2-((2-fluoro-6-methoxy-4-((E)-(phenethoxyimino)methyl)-phenoxy)methyl)phenyl)-3-methoxyacrylate] | 900 nM |
| CO/C=C(/C(=O)OC)c1ccccc1COc1ccc(/C=N/OC2CCCC2)cc1C [Compound 70, (E)-methyl 2-(2-((4-((E)-(cyclopentyloxyimino)methyl)-2-methylphenoxy)methyl)phenyl)-3-methoxyacrylate] | 180 nM |
| CO/C=C(/C(=O)OC)c1ccccc1COc1cc(C)c(/C=N/OCc2cccc(OC)c2)cc1C [Compound 72, (E)-methyl 2-(2-((4-((E)-(3-methoxybenzyloxyimino)methyl)-2,5-dimethylphenoxy)methyl)phenyl)-3-methoxyacrylate] | 180 nM |
| CO/C=C(/C(=O)OC)c1ccccc1COc1cccc(/C=N/OCCOc2ccccc2)c1 [Compound 75, (E)-methyl 2-(2-((3-((E)-(2-phenoxyethoxyimino)methyl)phenoxy)-methyl)phenyl)-3-methoxyacrylate] | 150 nM |
| CO/C=C(/C(=O)OC)c1ccccc1COc1cccc(OCCN2CCOCC2)c1 [Compound 76, (E)-methyl 2-(2-((3-(2-morpholinoethoxy)phenoxy)methyl)phenyl)-3-methoxyacrylate] | 1500 nM |
| CO/C=C(/C(=O)OC)c1ccccc1COc1cc(C)c(/C(C)=N/OCc2ccccn2)cc1C [Compound 79, (E)-methyl 2-(2-((2,5-dimethyl-4-((E)-1-(pyridin-2-ylmethoxyimino)-ethyl)phenoxy)methyl)phenyl)-3-methoxyacrylate] | 61 nM |

Now from value to compound:

| IC50 | Compound |
| --- | --- |
| 40 nM | CO/C=C(/C(=O)OC)c1ccccc1COc1cc(C)c(/C=N/Oc2ccccc2)cc1C [Compound 63, (E)-methyl 2-(2-((2,5-dimethyl-4-((E)-(phenoxyimino)methyl)phenoxy)-methyl)phenyl)-3-methoxyacrylate] |
| 60 nM | CO/C=C(/C(=O)OC)c1ccccc1COc1ccc(/C=N/OCC2CC2)cc1C [Compound 67, (E)-methyl 2-(2-((4-((E)-(cyclopropylmethoxyimino)methyl)-2-methylphenoxy)methyl)phenyl)-3-methoxyacrylate] |
| 7 nM | CO/C=C(/C(=O)OC)c1ccccc1COc1cc(C)c(/C=N/OCC2CC2)cc1C [Compound 68, (E)-methyl 2-(2-((4-((E)-(cyclopropylmethoxyimino)methyl)-2,5-dimethylphenoxy)methyl)phenyl)-3-methoxyacrylate] |
| 30 nM | CO/C=C(/C(=O)OC)c1ccccc1COc1cc(C)c(/C=N/OC2CCCC2)cc1C [Compound 69, (E)-methyl 2-(2-((4-((E)-(cyclopentyloxyimino)methyl)-2,5-dimethylphenoxy)methyl)phenyl)-3-methoxyacrylate] |
| 20 nM | CO/C=C(/C(=O)OC)c1ccccc1COc1cc(C)c(/C=N/OCCCOc2ccccc2)cc1C [Compound 71, (E)-methyl 2-(2-((2,5-dimethyl-4-((E)-(3-phenoxypropyloxyimino)-methyl)phenoxy)methyl)phenyl)-3-methoxyacrylate] |
| 30 nM | CO/C=C(/C(=O)OC)c1ccccc1COc1cc(C)c(/C=N/OCc2ccccn2)cc1C [Compound 73, (E)-methyl 2-(2-((4-((E)-(pyridin-2-ylmethoxyimino)methyl)-2,5-dimethylphenoxy)methyl)phenyl)-3-methoxyacrylate] |
| 60 nM | CO/C=C(/C(=O)OC)c1ccccc1COc1cc(C)c(/C=N/OCc2ccncc2)cc1C [Compound 74, (E)-methyl 2-(2-((4-((E)-(pyridin-4-ylmethoxyimino)methyl)-2,5-dimethylphenoxy)methyl)phenyl)-3-methoxyacrylate] |
| 20 nM | CO/C=C(/C(=O)OC)c1ccccc1COc1cc(C)c(/C(C)=N/OC)cc1C [Compound 77, (E)-methyl 2-(2-((2,5-dimethyl-4-((E)-1-(methoxyimino)ethyl)phenoxy)-methyl)phenyl)-3-methoxyacrylate] |
| 20 nM | CCO/N=C(\C)c1cc(C)c(OCc2ccccc2/C(=C\OC)C(=O)OC)cc1C [Compound 78, (E)-methyl 2-(2-((2,5-dimethyl-4-((E)-1-(ethoxyimino)ethyl)phenoxy)-methyl)phenyl)-3-methoxyacrylate] |
| 9 nM | CO/C=C(/C(=O)OC)c1ccccc1COc1cc(C)c(/C(COC)=N/OC)cc1C [Compound 80, (E)-methyl 3-methoxy-2-(2-((4-((Z)-2-methoxy-1-(methoxyimino)ethyl)-2,5-dimethylphenoxy)methyl)phenyl)acrylate] |
| 37 nM | CO/C=C(/C(=O)OC)c1ccccc1COc1cc(C)c(-c2cnco2)cc1C [Compound 81, (E)-methyl 3-methoxy-2-(2-((2,5-dimethyl-4-(oxazol-5-yl)phenoxy)-methyl)phenyl)acrylate] |
| 2 nM | CO/C=C(/C(=O)OC)c1ccccc1COc1cc(C)c(-c2ccn(C)n2)cc1C [Compound 82, (E)-methyl 3-methoxy-2-(2-((2,5-dimethyl-4-(1-methyl-1H-pyrazol-3-yl)phenoxy)methyl)phenyl)acrylate] |

These compounds were tested on tumor-induced angiogenesis (HCT116 cells) (assay: Assay for inhibitory activity against in vivo tumor-induced angiogenesis (intravital microscopy)). Conditions: 1 μmol in Matrigel with VEGF and HCT116 cells in abdominal window, four days, t-test p<0.01, FIGS. 4A and 4B.
Parameters: species or system BALB/c mice
Protocol: The inhibitory activity of the compounds of the present invention against angiogenesis was examined in vivo using intravital microscopy. Titanium windows (diameter 19 mm, inner diameter 14 mm, thickness 0.7 mm) were implanted in the abdominal walls male BALB/c mice, 6-8 weeks old, which had been anesthetized. A mixture of 100 μL Matrigel™ 20 ng VEGF, 1×10^5 HCT116 or HCT116 cells, and 1 μmol compound 75 was inserted into the tissues inside the window which was then covered with a cover slip and fixed with a snap ring. Four days later, 50 μL of 25 mg/mL fluorescein isothiocyanate-labeled dextran (Mw 250,000 Sigma) was injected via the tail vein to examine angiogenesis. Mice were then placed on a Zeiss Axiovert™ 200M microscope with a filter set (440-475 nm, excitation wavelength; 530-550 nm, emission wavelength). Fluorescence images were recorded in each window by an electron-multiplying CCD camera (Photon Max™ 521, Princeton Instruments) and digitized for subsequent off-line analysis using the MetaMorph™ program (Universal Imaging). The angiogenesis was scored from 0 (least positive) to 5 (most positive). Observations and degree of angiogenesis are shown in FIGS. 4A and 4B, respectively. […] Accordingly, the compound of the present invention was identified to inhibit angiogenesis in vivo.

| Compound | degree of angiogenesis (score 0 to 5) versus HCT-116 group |
| --- | --- |
| CO/C=C(/C(=O)OC)c1ccccc1COc1cccc(/C=N/OCCOc2ccccc2)c1 [Compound 75, (E)-methyl 2-(2-((3-((E)-(2-phenoxyethoxyimino)methyl)phenoxy)-methyl)phenyl)-3-methoxyacrylate] | significant difference |
